Values belong to the compound of their own block, whether it stands above or below them. Numbered stars: 1 amine (or outer) side, 2 acyl side, 3 side chain; on linkers, the order of the positions; unused ones are H or OH. Square brackets hold non-standard residues; d marks the D form. Peptide text beside a SMILES is read from it. * marks the point of attachment. X1 = N#Cc1cnc2ccc(-c3c(-c4ccc(F)c(Cl)c4)ncn3CCOCN*)nn12; C18 diacid = O=C(O)CCCCCCCCCCCCCCCCC(=O)*; C16 diacid = O=C(O)CCCCCCCCCCCCCCC(=O)*; γGlu = O=C(O)[C@H](CCC(=O)[*:2])N[*:1]; PABC = O=C(OCc1ccc(N[*:1])cc1)[*:2]; Palmitoyl = CCCCCCCCCCCCCCCC(=O)*; AEEA = NCCOCCOCC(=O)O
Columns and labels:
[1] = Stability in mouse plasma assessed as parent compound remaining after 24 hrs by HPLC-MS analysis; format: ADME, cell-free; details: read-out: Stability
[2] = AUC in C57BL/6 mouse plasma at 6 mg/kg,iv and measured upto 24 hrs by LC-MS/MS analysis; format: ADME, organism-based; parameters: dose 6 mg/kg, time < 24 hrs, route iv
[3] = Drug concentration in C57BL/6 mouse plasma at 6 mg/kg,iv and measured after 24 hrs by LC-MS/MS analysis; format: ADME, organism-based
[4] = Stability in rat plasma assessed as parent compound remaining after 24 hrs by HPLC-MS analysis; format: ADME, cell-free; details: read-out: Stability
[5] = Prodrug conversion in blood of C57BL/6 mouse xenografted mouse MC38 cells assessed as BMS-986260 ratio of AUC in tumor to blood at 8 mg/kg,iv and measured after 72 hrs by LC-MS/MS analysis; format: ADME, organism-based, MC-38; details: tumour
[6] = Prodrug conversion in tumor of C57BL/6 mouse xenografted mouse MC38 cells assessed as BMS-986260 Cmax at 8 mg/kg,iv and measured after 72 hrs by LC-MS/MS analysis; format: ADME, organism-based, Neoplasm, MC-38; parameters: dose 8 mg/kg, time 72 hrs, route iv; details: in vivo
[7] = Prodrug conversion in heart of C57BL/6 mouse xenografted mouse MC38 cells assessed as BMS-986260 Tmax at 8 mg/kg,iv and measured after 72 hrs by LC-MS/MS analysis; format: ADME, organism-based, MC-38; details: in vivo
[8] = Prodrug conversion in heart of C57BL/6 mouse xenografted mouse MC38 cells assessed as BMS-986260 Cmax at 8 mg/kg,iv and measured after 72 hrs by LC-MS/MS analysis; format: ADME, organism-based, MC-38; parameters: dose 8 mg/kg, time 72 hrs, route iv; details: in vivo
[9] = Prodrug conversion in tumor of C57BL/6 mouse xenografted mouse MC38 cells assessed as BMS-986260 AUC (0 to 72 hrs) at 8 mg/kg,iv and measured after 72 hrs by LC-MS/MS analysis; format: ADME, organism-based, Neoplasm, MC-38; parameters: time 72 hrs, dose 8 mg/kg, route iv; details: in vivo
[10] = Prodrug conversion in C57BL/6 mouse xenografted mouse MC38 cells assessed as BMS-986260 ratio of AUC in heart to blood at 8 mg/kg,iv and measured after 72 hrs by LC-MS/MS analysis; format: ADME, organism-based, MC-38; details: other tissue
[11] = Prodrug conversion in tumor of C57BL/6 mouse xenografted mouse MC38 cells assessed as BMS-986260 Tmax at 8 mg/kg,iv and measured after 72 hrs by LC-MS/MS analysis; format: ADME, organism-based, Neoplasm, MC-38; details: in vivo
[12] = Prodrug conversion in heart of C57BL/6 mouse xenografted mouse MC38 cells assessed as BMS-986260 AUC (0 to 72 hrs) at 8 mg/kg,iv and measured after 72 hrs by LC-MS/MS analysis; format: ADME, organism-based, MC-38; parameters: time 72 hrs, dose 8 mg/kg, route iv; details: in vivo
[13] = Prodrug conversion in blood of C57BL/6 mouse xenografted mouse MC38 cells assessed as BMS-986260 Tmax at 8 mg/kg,iv and measured after 72 hrs by LC-MS/MS analysis; format: ADME, organism-based, MC-38; details: in vivo
[14] = Prodrug conversion in blood of C57BL/6 mouse xenografted mouse MC38 cells assessed as BMS-986260 ratio of AUC in tumor to heart at 8 mg/kg,iv and measured after 72 hrs by LC-MS/MS analysis; format: ADME, organism-based, MC-38; details: in vivo
[15] = Prodrug conversion in blood of C57BL/6 mouse xenografted mouse MC38 cells assessed as BMS-986260 AUC (0 to 72 hrs) at 8 mg/kg,iv and measured after 72 hrs by LC-MS/MS analysis; format: ADME, organism-based, MC-38; parameters: time 72 hrs, dose 8 mg/kg, route iv; details: in vivo
[16] = Prodrug conversion in blood of C57BL/6 mouse xenografted mouse MC38 cells assessed as BMS-986260 Cmax at 8 mg/kg,iv and measured after 72 hrs by LC-MS/MS analysis; format: ADME, organism-based, MC-38; parameters: dose 8 mg/kg, time 72 hrs, route iv; details: in vivo

Structure (SMILES): CC(=O)N[C@@H](CC(C)C)C(=O)N[C@@H](CO)C(=O)NCC(=O)N[C@@H](CCCCN)C(=O)Nc1ccc(COC(=O)NCOCCn2cnc(-c3ccc(F)c(Cl)c3)c2-c2ccc3ncc(C#N)n3n2)cc1 (Ac-LSGK[PABC]-X1)
remaining at 24 h [1]: 6%

Structure (SMILES): CC(C)C[C@H](NC(=O)COCCOCCNC(=O)COCCOCCNC(=O)CC[C@H](NC(=O)CC[C@H](NC(=O)CC[C@H](NC(=O)CCCCCCCCCCCCCCCCC(=O)O)C(=O)O)C(=O)O)C(=O)O)C(=O)N[C@@H](CO)C(=O)NCC(=O)N[C@@H](CCCCN)C(=O)Nc1ccc(COC(=O)NCOCCn2cnc(-c3ccc(F)c(Cl)c3)c2-c2ccc3ncc(C#N)n3n2)cc1 ({C18 diacid-γGlu-γGlu-γGlu-AEEA-AEEA}-LSGK[PABC]-X1)
Ratio AUC [5]: 2.8
Cmax [6]: 310 nM
concentration at 24 h [3]: 5200 nM
AUC at 24 h [2]: 270 µM·h
remaining at 24 h [4]: 93%
Tmax [7]: 8 h
Cmax [8]: 270 nM
AUC [9]: 13 µM·h
Ratio AUC [10]: 1.8
remaining at 24 h [1]: 96%
Tmax [11]: 8 h
AUC [12]: 8.4 µM·h
Tmax [13]: 1 h
Ratio AUC [14]: 1.6
AUC [15]: 4.6 µM·h
Cmax [16]: 140 nM

Second part, the compound after the results:

remaining at 24 h [1]: 54%
Structure (SMILES): CC(C)C[C@H](NC(=O)COCCOCCNC(=O)COCCOCCNC(=O)CC[C@H](NC(=O)CCCCCCCCCCCCCCC(=O)O)C(=O)O)C(=O)N[C@@H](CO)C(=O)NCC(=O)N[C@@H](CCCCN)C(=O)Nc1ccc(COC(=O)NCOCCn2cnc(-c3ccc(F)c(Cl)c3)c2-c2ccc3ncc(C#N)n3n2)cc1 ({C16 diacid-γGlu-AEEA-AEEA}-LSGK[PABC]-X1)

AUC at 24 h [2]: 40.9 µM·h
Structure (SMILES): CCCCCCCCCCCCCCCC(=O)N[C@@H](CCC(=O)N[C@@H](CC(C)C)C(=O)N[C@@H](CO)C(=O)NCC(=O)N[C@@H](CCCCN)C(=O)Nc1ccc(COC(=O)NCOCCn2cnc(-c3ccc(F)c(Cl)c3)c2-c2ccc3ncc(C#N)n3n2)cc1)C(=O)O ({Palmitoyl-γGlu}-LSGK[PABC]-X1)

concentration at 24 h [3]: > 1000 nM
remaining at 24 h [4]: 81%
remaining at 24 h [1]: 79%
Structure (SMILES): CC(C)C[C@H](NC(=O)COCCOCCNC(=O)CC[C@H](NC(=O)CCCCCCCCCCCCCCCCC(=O)O)C(=O)O)C(=O)N[C@@H](CO)C(=O)NCC(=O)N[C@@H](CCCCN)C(=O)Nc1ccc(COC(=O)NCOCCn2cnc(-c3ccc(F)c(Cl)c3)c2-c2ccc3ncc(C#N)n3n2)cc1 ({C18 diacid-γGlu-AEEA}-LSGK[PABC]-X1)
